Laboratory results published in ChEMBL document CHEMBL6096703 (J Med Chem, 2025).
Activity calls are given as the source filed them. The calls are words filed in the database; no cut-off is given here.

Legend:
[1] = Sub-acute toxicity in Kunming mouse assessed as change ALB2 level at 30 to 100 mg/kg administered via gavage once every other day for 14 days; type: organism-based; settings: in vivo, po, 336 h, dose 30-100 mg/kg, time 14 day
[2] = Acute toxicity in Kunming mouse assessed as change in body weight at 30 to 100 mg/kg administered via gavage once every other day for 14 days; type: organism-based; settings: in vivo, po, 336 h, dose 30-100 mg/kg, time 14 day
[3] = Clearance in male Balb/c mouse at 1 mg/kg, iv measured upto 96 hrs by LC-MS/MS analysis; type: ADME, organism-based; settings: in vivo, iv, 1 mg/kg, 96 h
[4] = Sub-acute toxicity in Kunming mouse assessed as change ALB2 level at 100 to 300 mg/kg administered via gavage for 14 days; type: organism-based; settings: in vivo, po, 336 h, dose 100-300 mg/kg, time 14 day
[5] = Apparent volume of distribution in male Balb/c mouse at 1 mg/kg, iv measured upto 96 hrs by LC-MS/MS analysis; type: ADME, organism-based; settings: in vivo, iv, 1 mg/kg, 96 h
[6] = Cmax in rat at 2.5 mg/kg, po measured upto 96 hrs by LC-MS/MS analysis; type: ADME, organism-based; settings: in vivo
[7] = Oral bioavailability in male Balb/c mouse at 1 mg/kg measured upto 96 hrs by LC-MS/MS analysis; type: ADME, organism-based; settings: in vivo
[8] = Clearance in rat at 2.5 mg/kg, po measured upto 96 hrs by LC-MS/MS analysis; type: ADME, organism-based; settings: in vivo
MDA-MB-436 [9] = test: Antitumor activity against luciferase tagged human MDA-MB-436 cells xenografted in female NOD-SCID mouse assessed as median survival time at 3 mg/kg, po administered once a day for 34 days; type: functional; settings: time 34 day
[10] = Cmax in rat at 2.5 mg/kg, iv measured upto 96 hrs by LC-MS/MS analysis; type: ADME, organism-based; settings: in vivo
[11] = Toxicity in female NOD/SCID mouse xenografted with human MDA-MB-436 cells assessed as histological changes in kidney at 3 mg/kg, po administered once every other day for 28 days by H and E staining based analysis; type: organism-based; settings: in vivo, 672 h, time 28 day
[12] = Toxicity in female NOD/SCID mouse xenografted with human MDA-MB-436 cells assessed as histological changes in lung at 3 mg/kg, po administered once every other day for 28 days by H and E staining based analysis; type: organism-based; settings: in vivo, 672 h, time 28 day
MDA-MB-436 [13] = test: Induction of apoptosis in human MDA-MB-436 cells assessed as late apoptotic cells at 1 nM incubated for 3 days by Annexin V/ PI staining based flow cytometry (reference value: 6.57%); type: functional; settings: time 3 day
MDA-MB-436 [14] = test: Inhibition of colony formation in human MDA-MB-436 cells assessed as reduction in survival rate incubated for 10 days by crystal violet staining based assay; type: functional, cell-based; settings: dose 0.1-100 nM, time 10.0 day
[15] = Tmax in rat at 2.5 mg/kg, po measured upto 96 hrs by LC-MS/MS analysis; type: ADME, organism-based; settings: in vivo
[16] = Sub-acute toxicity in Kunming mouse assessed as change ASTL level at 30 to 100 mg/kg administered via gavage once every other day for 14 days; type: organism-based; settings: in vivo, po, 336 h, dose 30-100 mg/kg, time 14 day
DLD-1 = test: Induction of DNA damage in BRCA2 knockout human DLD-1 cells assessed as increase in tail intensity at 100 to 1000 nM incubated for 3 days by PI staining based fluorescence microscopic analysis; type: functional, cell-based; settings: dose 100-1000 nM, time 3.0 day
[17] = Sub-acute toxicity in Kunming mouse assessed as change CREA2 level at 100 to 300 mg/kg administered via gavage for 14 days; type: organism-based; settings: in vivo, po, 336 h, dose 100-300 mg/kg, time 14 day
[18] = Sub-acute toxicity in Kunming mouse assessed as change CK level at 30 to 100 mg/kg administered via gavage once every other day for 14 days; type: organism-based; settings: in vivo, po, 336 h, dose 30-100 mg/kg, time 14 day
[19] = Acute toxicity in Kunming mouse assessed as change in heart structure at 300 mg/kg administered via gavage for 14 days by H and E staining based analysis; type: organism-based; settings: in vivo, po, 336 h, time 14 day
[20] = Acute toxicity in Kunming mouse assessed as change in body weight at 100 to 300 mg/kg administered orally via gavage for 14 days; type: organism-based; settings: in vivo, po, 336 h, dose 100-300 mg/kg, time 14 day
[21] = Acute toxicity in Kunming mouse assessed as change in kidney structure at 300 mg/kg administered via gavage for 14 days by H and E staining based analysis; type: organism-based; settings: in vivo, po, 336 h, time 14 day
[22] = Toxicity in female NOD/SCID mouse xenografted with human MDA-MB-436 cells assessed as histological changes in liver at 3 mg/kg, po administered once every other day for 28 days by H and E staining based analysis; type: organism-based; settings: in vivo, 672 h, time 28 day
[23] = Sub-acute toxicity in Kunming mouse assessed as change UREAL level at 30 to 100 mg/kg administered via gavage once every other day for 14 days; type: organism-based; settings: in vivo, po, 336 h, dose 30-100 mg/kg, time 14 day
[24] = Acute toxicity in Kunming mouse assessed as change in cellular morphology of spleen at 100 mg/kg administered once every other day via gavage for 14 days by H and E staining based analysis; type: organism-based; settings: in vivo, po, 336 h, time 14 day
[25] = Half life in rat at 2.5 mg/kg, iv measured upto 96 hrs by LC-MS/MS analysis; type: ADME, organism-based; settings: in vivo
MDA-MB-436 [26] = test: Antitumor activity against human MDA-MB-436 cells xenografted in female NOD/SCID mouse assessed as weaker Ki67 staining at 0.3 to 3 mg/kg, po administered once every other day for 28 days by immunohistochemical analysis; type: functional, organism-based; settings: dose 0.3-3 mg/kg, time 28.0 day
[27] = Tmax in male Balb/c mouse at 1 mg/kg, po measured upto 96 hrs by LC-MS/MS analysis; type: ADME, organism-based; settings: in vivo
[28] = Sub-acute toxicity in Kunming mouse assessed as change LDH2 level at 100 to 300 mg/kg administered via gavage for 14 days; type: organism-based; settings: in vivo, po, 336 h, dose 100-300 mg/kg, time 14 day
MDA-MB-436 [29] = test: Induction of DNA damage in human MDA-MB-436 cells assessed as increase in gammaH2AX foci at 0.1 to 1000 nM incubated for 3 days by DAPI staining based immunofluorescence analysis; type: functional, cell-based; settings: dose 0.1-1000 nM, time 3.0 day
[30] = target: T1, Poly [ADP-ribose] polymerase 1 (Homo sapiens, UniProt P09874); test: Inhibition of PARP1 in PARP2 knockout human A549 cells preincubated with compound for 1 hr followed by H2O2 addition and measured after 5 mins by selective targeting PARylation inhibition assay; type: cell-based
T1 sequence (P09874 whole entry): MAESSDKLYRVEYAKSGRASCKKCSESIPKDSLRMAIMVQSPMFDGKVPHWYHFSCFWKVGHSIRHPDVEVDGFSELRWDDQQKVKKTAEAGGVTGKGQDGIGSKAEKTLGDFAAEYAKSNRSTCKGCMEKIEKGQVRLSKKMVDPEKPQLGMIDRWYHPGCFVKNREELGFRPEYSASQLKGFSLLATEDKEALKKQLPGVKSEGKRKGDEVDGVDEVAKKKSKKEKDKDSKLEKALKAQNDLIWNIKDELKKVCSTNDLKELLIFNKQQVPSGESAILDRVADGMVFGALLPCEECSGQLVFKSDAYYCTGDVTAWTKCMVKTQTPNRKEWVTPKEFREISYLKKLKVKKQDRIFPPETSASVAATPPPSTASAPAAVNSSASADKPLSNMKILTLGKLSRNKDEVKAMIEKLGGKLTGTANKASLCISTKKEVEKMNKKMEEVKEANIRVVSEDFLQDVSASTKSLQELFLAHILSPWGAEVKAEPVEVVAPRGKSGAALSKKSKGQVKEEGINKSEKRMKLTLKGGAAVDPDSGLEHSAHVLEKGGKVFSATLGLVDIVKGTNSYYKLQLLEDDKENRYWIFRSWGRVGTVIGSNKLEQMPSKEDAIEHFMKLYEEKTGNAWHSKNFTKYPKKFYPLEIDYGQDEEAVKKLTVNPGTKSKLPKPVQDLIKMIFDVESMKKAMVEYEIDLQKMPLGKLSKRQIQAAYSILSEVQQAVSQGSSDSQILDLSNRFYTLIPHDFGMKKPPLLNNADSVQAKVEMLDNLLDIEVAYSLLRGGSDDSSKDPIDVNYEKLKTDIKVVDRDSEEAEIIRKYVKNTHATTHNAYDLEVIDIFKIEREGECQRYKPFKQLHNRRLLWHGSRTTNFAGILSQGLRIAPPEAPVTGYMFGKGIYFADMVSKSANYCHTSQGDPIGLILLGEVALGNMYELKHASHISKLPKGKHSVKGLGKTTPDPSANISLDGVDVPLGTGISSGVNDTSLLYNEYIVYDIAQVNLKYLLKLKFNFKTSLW

[31] = target: T1, Poly [ADP-ribose] polymerase 1; test: Inhibition of PARP1 (unknown origin) preincubated with compound for 10 mins followed by DNA and NAD+ addition and measured after 60 mins by chemiluminescence based envision reader analysis
MDA-MB-436 [32] = test: Induction of cell cycle arrest in human MDA-MB-436 cells assessed as accumulation of cells at G2/M phase at 1 nM incubated for 3 days by PI staining based flow cytometric analysis (Rvb =24.88%); type: functional; settings: time 3 day
[33] = Tmax in male Balb/c mouse at 1 mg/kg, iv measured upto 96 hrs by LC-MS/MS analysis; type: ADME, organism-based; settings: in vivo
[34] = Sub-acute toxicity in Kunming mouse assessed as change CK level at 100 to 300 mg/kg administered via gavage for 14 days; type: organism-based; settings: in vivo, po, 336 h, dose 100-300 mg/kg, time 14 day
[35] = Acute toxicity in Kunming mouse assessed as change in cellular morphology of kidney at 100 mg/kg administered once every other day via gavage for 14 days by H and E staining based analysis; type: organism-based; settings: in vivo, po, 336 h, time 14 day

With `CCc1cc2ncc(CN3CC=C(c4ccc(C#N)cn4)CC3)cc2[nH]c1=O` the Activity [1] was “Non-toxic”, the Activity [2] was “Non-toxic” and the CL [3] was 0.17 mL/min/kg. The Activity [4] was “Non-toxic”, the Vz [5] was 0.16 L/kg and the Cmax [6] was 7540 ng/mL. The bioavailability [7] was 87.7%, the CL/F [8] was 0.167 mL/min/kg and the Survival (MDA-MB-436 [9]) was over 60 days. The Cmax [10] was 13900 ng/mL, the Activity [11] was “Non-toxic” and the Activity [12] was “Non-toxic”. The Activity (MDA-MB-436 [13]) was 8.18%, the inhibition (MDA-MB-436 [14]) was “Dose-dependent-effect” and the Tmax [15] was 8 h. For the same compound, the Activity [16] was “Non-toxic”, the Activity (DLD-1) was “Active” and the Activity [17] was “Non-toxic”. For the same compound, the Activity [18] was “Non-toxic”, the Activity [19] was “Non-toxic” and the Activity [20] was “Non-toxic”. For the same compound, the Activity [21] was “Non-toxic”, the Activity [22] was “Non-toxic” and the Activity [23] was “Non-toxic”. The Activity [24] was “Non-toxic”, the half-life [25] was 27.8 h and the Activity (MDA-MB-436 [26]) was “Active”. For the same compound, the Tmax [27] was 8.33 h, the Activity [28] was “Non-toxic” and the Activity (MDA-MB-436 [29]) was “Active”. For the same compound, the IC50 [30] was 0.9 nM, the IC50 [31] was 0.2 nM and the Activity (MDA-MB-436 [32]) was 28.04%. For the same compound, the Tmax [33] was 4.8 min, the Activity [34] was “Non-toxic” and the Activity [35] was “Non-toxic”.
